Laboratory results as given in patent US20110244025A1, “MODIFIED OLIGORIBONUCLEOTIDE ANALOGS WITH ENHANCED IMMUNOSTIMULATORY ACTIVITY” (priority 2005, published 2011).
Entries after “also recorded” stand apart in the source; their conditions may differ. Read-outs that look alike come from different tables or passages of the source. Oligonucleotides are written 5' to 3', each unit as a sugar letter and its base; * is a phosphorothioate linkage, no mark a phosphodiester; rarer units and linkages stand in square brackets, end groups in braces. Plain capitals give the bases only. r = 2'-OH (RNA)

Experiments:
[1] = Stability against nuclease degradation in human serum (IP-RP-HPLC); format: in vitro ADME
Description: Oligoribonucleotides R-1075 (SEQ ID NO:206), without triethylene glycol (teg) modification, and R-1907, with teg modification, were analysed using ion-pair reverse phase high pressure liquid chromatography (IP-RP-HPLC) following incubation in water or human serum for 1 to 60 minutes. While both of these oligoribonucleotides have fully phosphorothioate backbones, R-1075 is more than twice as long (18 nucleotides) as R-1907 (8 nucleotides). R-1075 incubated in water for 1 minute produced a single, sharp peak upon IP-RP-HPLC. […] R-1907 also produced a single, sharp peak following incubation in water for 1 minute. […] In fact, the peak height for R-1907 decreased by only about 50 percent following incubation in human serum for 60 minutes.

[2] = test system: human peripheral blood mononuclear cells (PBMC); assay: TNF-α production by human PBMC (ELISA of culture supernatants); format: cell-based; conditions: human PBMC from three donors, 24 hours, oligonucleotide 0.001-4 μM, in the presence of DOTAP (20 μg/ml); FIG. 3 and FIG. 4
Description: (§1) Human peripheral blood mononuclear cells (PBMC) were isolated from three donors and incubated for 24 hours in the presence of various test or control oligonucleotides or control conditions, in either the presence or absence of DOTAP (20 μg/ml). Oligonucleotides were added at different concentrations ranging from 0.001-4 μM. Culture supernatants were then collected and then analyzed by separate enzyme-linked immunosorbent assays (ELISAs) specific for human interferon alpha (IFN-α) and tumor necrosis factor alpha (TNF-α).
(§2) Control oligonucleotides and conditions included R-1012, rU*rU*rU*rU*rU*rU*rU*rU, where * represents phosphorothioate linkage and rU represents uridine; R-1075 (SEQ ID NO:206, fully phosphorothioate backbone), R-1362, rU*rU*rG*rU*rU*rG*rU*rU*rG*rU*rU*rG*rU*rU*rG*rU*rU*rG*rU*rU (SEQ ID NO:331), where * again represents phosphorothioate linkage, rU again represents uridine, and rG represents guanosine; CpG oligodeoxynucleotide 2395, T*C*G*T*C*G*T*T*T*T*C*G*G*C*G*C*G*C*G*C*C*G (SEQ ID NO:330), lipopolysaccharide (LPS), DOTAP, and no additive (w/o).
(§3) Test oligonucleotides included the following modifications of R-1012: R-1907, rU*rU*rU*rU*rU*rU*rU*rU-teg, where teg represents triethylene glycol; R-1908, rU*rU*rU*rU*rU*rU*rU*5SrU-teg, where 5S represents a linkage according to Formula II wherein X is O, X^1 is SH, X^2 is O, and X^3 is S; R-1909, rU*rU*rU*rU*rU*5SrU*rU*5SrU-teg; R-1910, rU*rU*rU*5SrU*rU*5SrU*rU*5SrU-teg; and R-1911, rU*5SrU*rU*5SrU*rU*5SrU*rU*5SrU-teg.

[3] = test system: human peripheral blood mononuclear cells (PBMC); assay: IFN-α production by human PBMC (ELISA of culture supernatants); format: cell-based; conditions: human PBMC from three donors, 24 hours, oligonucleotide 0.001-4 μM, in the presence of DOTAP (20 μg/ml); FIG. 1 and FIG. 2
Description: as §1, §2, §3

Q: With “R-1075: control oligoribonucleotide, SEQ ID NO:206 (CCGUCUGUUGUGUGACUC), fully phosphorothioate backbone, 18 nucleotides, without teg modification (rC*rC*rG*rU*rC*rU*rG*rU*rU*rG*rU*rG*rU*rG*rA*rC*rU*rC) [reference compound]” as the substance, how does the “IP-RP-HPLC peak of the oligoribonucleotide after incubation in human serum” value ([1]; human serum, 1 minute, compared with incubation in water for 1 minute) read?
A: essentially completely disappeared

Q: With “rU*rU*rU*rU*rU*5SrU*rU*5SrU-teg [R-1909]” as the substance, how does the TNF-α production [2] read?
A: significantly higher amounts of TNF-a compared to unmodified R-1012

Q: And the IFN-α production [3]?
A: increase in IFN-α induction compared to R-1907

Q: For “rU*5SrU*rU*5SrU*rU*5SrU*rU*5SrU-teg [R-1911]”, which TNF-α production [2] is on record?
A: significantly higher amounts of TNF-a compared to unmodified R-1012

Q: What about the IFN-α production [3] of the same substance?
A: did not induce significant amounts of IFN-α

Q: Which “IP-RP-HPLC peak of the oligoribonucleotide after incubation in human serum” value [1] does the source give for rU*rU*rU*rU*rU*rU*rU*rU-teg [R-1907] here?
A: persisted essentially unchanged

Q: And the “decrease of IP-RP-HPLC peak height after incubation in human serum” value [1]?
A: about 50%

Q: What about the TNF-α production [2] of the same substance?
A: enhanced TNF-α production compared to unmodified R-1012; also recorded: significantly higher amounts of TNF-a compared to unmodified R-1012

Q: What about the IFN-α production [3] of the same substance?
A: reduced IFN-α production compared to unmodified R-1012

Q: With rU*rU*rU*rU*rU*rU*rU*5SrU-teg [R-1908] as the substance, how does the TNF-α production [2] read?
A: significantly higher amounts of TNF-a compared to unmodified R-1012

Q: What about the IFN-α production [3] of the same substance?
A: increase in IFN-α induction compared to R-1907

Q: What does the source list for “rU*rU*rU*5SrU*rU*5SrU*rU*5SrU-teg [R-1910]”?
A: TNF-α production [2]: significantly higher amounts of TNF-a compared to unmodified R-1012; IFN-α production [3]: did not induce significant amounts of IFN-α
